We go through 32 compounds from US7803831B2, “3-(2-hydroxy-phenyl)-1H-pyrazole-4-carboxylic acid amide derivatives as HSP90 inhibitors for the treatment of cancer” (Vernalis (Cambridge) Limited, priority 2002, dated 2010).

Experiment [1] in a line: Sulforhodamine B (SRB) growth inhibition / cytotoxicity assay. Format: cell-based. Particulars: SRB growth arrest assay; cell line not stated. Here is the method: A growth inhibition assay was also employed for the evaluation of candidate HSP90 inhibitors:
• 1) Determine cell number by haemocytometer. • 2) Using an 8 channel multipipettor, add 160 μl of the cell suspension (3600 cells/well or 2×10^4 cells/ml) to each well of a 96-well microtitre plate. • 3) Incubate overnight at 37° C. in a CO2 incubator. Day 2 • 4) Stock solutions of drugs are prepared, and serial dilutions of each drug are performed in medium to give final concentrations in wells. • 5) Using a multipipettor, 40 μl of drug (at 5× final concentration) is added to quadruplicate wells. • 6) Control wells are at either side of the 96 well plates, where 40 μl of medium is added. • 7) Incubate plates in CO2 incubator for 4 days (48 hours). Day 6 • 8) Tip off medium into sink and immerse plate slowly into 10% ice cold trichloroacetic acid (TCA). […] Leave for 15 mins. • 12) Wash off unbound SRB stain with four washes of 1% acetic acid. • 13) Dry plates in incubator. • 14) Solubilise SRB using 100 μl of 10 mM Tris base and put plates on plate shaker for 5 mins. • 15) Determine absorbance at 540 nm using a plate reader. Calculate mean absorbance for quadruplicate wells and express as a percentage of value for control, untreated wells. • 16) Plot % absorbance values versus log drug concentration and determine the IC50.

Another experiment concerns the target T1, yeast HSP90 (Saccharomyces cerevisiae, UniProt P02829).
T1 construct: made in house; host or cells: E. coli
Nature of the experiment: Malachite green ATPase assay. Format: biochemical. Particulars: activity range. An excerpt: The intrinsic ATPase activity of HSP90 may be measured using yeast HSP90 as a model system. The assay, based on the use of malachite green for the measurement of inorganic phosphate, was used to test the HSP90 inhibitory activity of the compounds of the Examples herein.
Malachite Green ATPase Assay
Chemicals are of the highest purity commercially available and all aqueous solutions are made up in AR water. Because of the need to minimise contamination with inorganic phosphate, precautions should be taken with solutions and apparatus used in the assays. Glassware and pH meters are rinsed with double distilled or deionised water before use and, wherever possible, plastic ware should be used. Gloves are worn for all procedures. • (1) Greiner 384-well (Greiner 781101) or Costar 384-well flat-bottomed polystyrene multiwell plates (VWR). • (2) Assay buffer of (a) 100 mM Tris-HCl, pH 7.4, (b) 150 mM KCI, (c) 6 mM MgCl2. Stored at room temperature. • (3) 0.0812% (w/v) malachite green (M 9636, Sigma Aldrich Ltd., Poole, UK). Stored at room temperature. • (4) 2.32% (w/v) polyvinyl alcohol USP (P 1097, Sigma Aldrich Ltd, Poole, UK) in boiling water (see Comment 1), allowed to cool, and stored at room temperature. • (5) 5.72% (w/v) ammonium molybdate in 6 M hydrochloric acid. Stored at room temperature. • (6) 34% (w/v) sodium citrate. Stored at room temperature. • (7) 100 mM ATP, disodium salt, special quality (47699, Sigma Aldrich). Stored at −20° C. • (8) E. coli expressed yeast HSP90 protein, purified >95% (see, e.g., Panaretou et al., 1998) and stored in 50 uL aliquots at −80° C. Method • 1. Dilute test compounds to 500 μM in AR water (DMSO concentration will be 2.5%). Transfer 2.5 μl of these compounds directly from the daughter plate to the assay plate, giving a final assay concentration of 100 μM. To obtain 12 point IC50 values, perform serial dilutions 1:2 to produce a range of assay concentrations from 100 μM to 97.6 nM (2.5% DMSO), and transfer 2.5 μl of each concentration into the assay plate. Column 1 in the assay plate contains no compound, as a negative control. An additional row with no compound is also used as a background. • 2. Prepare ATP by diluting 100 mM stock to 925 μM with assay buffer, and aliquot 5 μl of diluted ATP to each well including controls (final assay concentration 370 μM). • 3. Add 5 μl of buffer to background row. • 4. Dilute enzyme preparation to 1.05 μM with assay buffer, and aliquot 5 μl into each compound well and to the negative control column. • 5. Collect the reagents to the bottom of the well, cover plate with plate seal and incubate overnight at 37 degC. • 6. First thing in the morning prepare the Malachite Green Reagent. Add 2 parts of Malachite Green Solution, 1 part of Polyvinyl Alcohol Solution, 1 part of Ammonium Molybdate Solution, and 2 parts of AR water. • 7. Invert to mix, and leave for approximately 1 hour until the colour turns from brown to golden yellow. • 8. Add 40 μl of Malachite Green Reagent to each well, allow 5 mins for colour to develop. • 9. Add 5 μl of Sodium Citrate Reagent to each well (see comment 2) • 10. Re-cover with plate seal and shake on plate shaker for at least 15 mins. • 11. Measure Absorbance at 620 nm using a suitable plate reader (e.g. Victor, Perkin Elmer Life Sciences, Milton Keynes, UK). […] Comments • (1) The polyvinyl alcohol dissolves in boiling water with difficulty and stirring for 2-3 h is required. • (2) The time interval between addition of the malachite green reagent and the sodium citrate should be kept as short as possible in order to reduce the non-enzymatic hydrolysis of ATP. Once the sodium citrate is added, the colour is stable for up to 4 h at room temperature. • (3) Compounds can be added to the assay plates using a Biomek FX Robot (Beckman Coulter).

As usually defined, the IC50 is the concentration at which inhibition is half-maximal. A low value points to greater potency.

T1 sequence (P02829 whole entry, looked up): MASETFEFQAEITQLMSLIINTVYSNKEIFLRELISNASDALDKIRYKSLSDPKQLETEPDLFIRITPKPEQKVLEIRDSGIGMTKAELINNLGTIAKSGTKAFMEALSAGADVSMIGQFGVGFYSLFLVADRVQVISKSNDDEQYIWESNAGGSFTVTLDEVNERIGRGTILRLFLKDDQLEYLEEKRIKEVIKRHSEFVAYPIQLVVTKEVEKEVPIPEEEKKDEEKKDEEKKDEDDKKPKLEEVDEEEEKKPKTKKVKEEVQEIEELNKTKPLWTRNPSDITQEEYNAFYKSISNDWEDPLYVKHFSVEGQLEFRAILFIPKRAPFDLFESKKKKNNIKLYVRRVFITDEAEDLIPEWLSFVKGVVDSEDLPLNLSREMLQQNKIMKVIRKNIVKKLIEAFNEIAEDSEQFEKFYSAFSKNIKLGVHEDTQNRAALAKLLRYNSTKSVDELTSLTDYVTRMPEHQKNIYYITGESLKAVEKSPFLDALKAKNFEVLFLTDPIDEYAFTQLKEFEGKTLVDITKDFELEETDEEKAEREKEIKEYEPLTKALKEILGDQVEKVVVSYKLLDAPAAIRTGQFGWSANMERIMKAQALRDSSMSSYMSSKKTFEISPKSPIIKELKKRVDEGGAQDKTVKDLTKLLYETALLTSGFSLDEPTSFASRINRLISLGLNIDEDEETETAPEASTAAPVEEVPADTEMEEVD

Regarding `CC(=O)c1ccc(NC(=O)c2c[nH]nc2-c2cc(Cl)c(O)cc2O)cc1` [Example 1, 3-(5-chloro-2,4-dihydroxy-phenyl)-1H-pyrazole-4-carboxylic acid (4-acetyl-phenyl)-amide], in experiment [1], the IC50 is greater than 50 µM.

As for `O=C(Nc1ccccc1)c1c[nH]nc1-c1cc(Cl)c(O)cc1O` [Example 2], the IC50 against yeast HSP90 was greater than 50 µM.

`O=C(c1c[nH]nc1-c1cc(Cl)c(O)cc1O)N1CCN(c2ccccc2)CC1` [Example 3]: the IC50 at yeast HSP90 was greater than 50 µM.

Consider `C=CCNC(=O)c1c[nH]nc1-c1cc(Cl)c(O)cc1O` [Example 4], for which the IC50 against yeast HSP90 was greater than 50 µM.

`O=C(c1c[nH]nc1-c1cc(Cl)c(O)cc1O)N1CCOCC1` [Example 5] showed an IC50 against yeast HSP90 greater than 50 µM.

`CN1CCN(C(=O)c2c[nH]nc2-c2cc(Cl)c(O)cc2O)CC1` [Example 6] showed an IC50 against yeast HSP90 greater than 50 µM.

As for `O=C(NCCCN1CCOCC1)c1c[nH]nc1-c1cc(Cl)c(O)cc1O` [Example 7], the IC50 on yeast HSP90 was greater than 50 µM.

With `O=C(Nc1ccccn1)c1c[nH]nc1-c1cc(Cl)c(O)cc1O` [Example 8], on yeast HSP90, the half-maximal inhibitory concentration (IC50) is greater than 50 µM.

`O=C(NCc1ccco1)c1c[nH]nc1-c1cc(Cl)c(O)cc1O` [Example 9] had an IC50 on yeast HSP90 of less than 50 µM.

Consider `O=C(NCCc1cccs1)c1c[nH]nc1-c1cc(Cl)c(O)cc1O` [Example 10], for which the IC50 against yeast HSP90 is less than 50 µM.

Turning to `O=C(NCCN1CCOCC1)c1c[nH]nc1-c1cc(Cl)c(O)cc1O` [Example 11], the IC50 on yeast HSP90 was greater than 50 µM.

On yeast HSP90, `O=C(NCCCO)c1c[nH]nc1-c1cc(Cl)c(O)cc1O` [Example 12] came in with an IC50 greater than 50 µM.

For `O=C(Nc1ccc(O)cc1)c1c[nH]nc1-c1cc(Cl)c(O)cc1O` [Example 13], the IC50 against yeast HSP90 is less than 50 µM.

The compound `COc1cccc(NC(=O)c2c[nH]nc2-c2cc(Cl)c(O)cc2O)c1` [Example 14] showed an IC50 on yeast HSP90 of less than 50 µM.

`O=C(Nc1ccc2c(c1)OCCO2)c1c[nH]nc1-c1cc(Cl)c(O)cc1O` [Example 15] displayed a half-inhibitory concentration (IC50) at yeast HSP90 of less than 50 µM.

Regarding `O=C(Nc1ccc(O)c(O)c1)c1c[nH]nc1-c1cc(Cl)c(O)cc1O` [Example 16], the IC50 against yeast HSP90 was greater than 50 µM.

The compound `COc1ccc(NC(=O)c2c[nH]nc2-c2cc(Cl)c(O)cc2O)cc1` [Example 17] registered a half-inhibitory concentration (IC50) at yeast HSP90 of less than 50 µM.

On to `O=C(Nc1ccc(Cl)cc1)c1c[nH]nc1-c1cc(Cl)c(O)cc1O` [Example 18], for which, on yeast HSP90, the 50% inhibitory concentration (IC50) is greater than 50 µM.

At yeast HSP90, `CC(=O)Nc1ccc(NC(=O)c2c[nH]nc2-c2cc(Cl)c(O)cc2O)cc1` [Example 19] returned an IC50 greater than 50 µM.

`COC(=O)c1ccc(NC(=O)c2c[nH]nc2-c2cc(Cl)c(O)cc2O)cc1` [Example 20] yielded a half-maximal inhibitory concentration (IC50) at yeast HSP90 of less than 50 µM.

`NC(=O)c1ccc(NC(=O)c2c[nH]nc2-c2cc(Cl)c(O)cc2O)cc1` [Example 22] showed an IC50 against yeast HSP90 of less than 50 µM.

In turn, `O=C(NCc1ccccc1)c1c[nH]nc1-c1cc(Cl)c(O)cc1O` [Example 23] displayed an IC50 against yeast HSP90 greater than 50 µM.

`O=C(O)Cc1ccc(NC(=O)c2c[nH]nc2-c2cc(Cl)c(O)cc2O)cc1` [Example 24]: the IC50 against yeast HSP90 is greater than 50 µM.

Compound `COc1ccc(N(C)C(=O)c2c[nH]nc2-c2cc(Cl)c(O)cc2O)cc1` [Example 25] had an IC50 at yeast HSP90 greater than 50 µM.

On to `O=C(O)c1ccc(CNC(=O)c2c[nH]nc2-c2cc(Cl)c(O)cc2O)cc1` [Example 26], for which the IC50 at yeast HSP90 was less than 50 µM.

`Cc1ccc(CNC(=O)c2c[nH]nc2-c2cc(Cl)c(O)cc2O)cc1` [Example 27]: the half-inhibitory concentration (IC50) against yeast HSP90 was less than 50 µM.

In turn, `COc1ccc(CNC(=O)c2c[nH]nc2-c2cc(Cl)c(O)cc2O)cc1` [Example 28] gave an IC50 at yeast HSP90 of less than 50 µM.

`O=C(NCc1ccc(F)cc1)c1c[nH]nc1-c1cc(Cl)c(O)cc1O` [Example 29]: the IC50 at yeast HSP90 is less than 50 µM.

In the case of `O=C(NCc1ccc(Cl)cc1)c1c[nH]nc1-c1cc(Cl)c(O)cc1O` [Example 30], the IC50 against yeast HSP90 is less than 50 µM.

In the case of `COc1cccc(CNC(=O)c2c[nH]nc2-c2cc(Cl)c(O)cc2O)c1` [Example 31], the IC50 on yeast HSP90 was less than 50 µM.

Consider `O=C(NCc1cccc(C(F)(F)F)c1)c1c[nH]nc1-c1cc(Cl)c(O)cc1O` [Example 32], for which the IC50 at yeast HSP90 is less than 50 µM.

In turn, `CS(=O)(=O)c1ccc(CNC(=O)c2c[nH]nc2-c2cc(Cl)c(O)cc2O)cc1` [Example 33] displayed a concentration for half-maximal inhibition (IC50) at yeast HSP90 of less than 50 µM.
